Source: US20250092065A1, “2-(INDAZOL-5-YL)-6-(PIPERIDIN-4-YL)-1,7-NAPHTHYRIDINE DERIVATIVES AND RELATED COMPOUNDS AS MODULATORS FOR SPLICING NUCLEIC ACIDS AND FOR THE TREATMENT OF PROLIFERATIVE DISEASES” (REMIX THERAPEUTICS INC., priority 2022, published 2025)
pIC50: −log10 of the molar value. Read-outs that look alike come from different tables or passages of the source.

What was measured:
HTT mRNA = assay: RT-qPCR splicing assay, HTT mRNA canonical (CJ) and alternative (AJ) junction; assay type: cell-based, human; conditions: for AC50: HTT alternative junction mRNA, read-out: HTT AJ (increase in AJ mRNA, AC50)
Outline: (§1)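 Splice switching quantified in compound-treated A673/K562 cells after 24 h exposure (top dose 10 uM, 3-fold steps, ≤0.25% DMSO), using CJ and AJ qPCR assays run at least in duplicate. RQ derived by 2^(−ΔΔCt), then percentage response.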

MYB mRNA = assay: RT-qPCR splicing assay, MYB mRNA canonical (CJ) and alternative (AJ) junction; assay type: cell-based, human; conditions: for AC50: MYB alternative junction mRNA, read-out: MYB AJ (increase in AJ mRNA, AC50)
Outline: as §1

SMN2 mRNA = assay: RT-qPCR splicing assay, SMN2 mRNA; assay type: cell-based, human; conditions: canonical junction qPCR panel, Table 4, read-out: SMN2 IC50 (decrease in CJ mRNA levels)
Outline: as §1

MYB = assay: HiBiT protein abundance assay, MYB (K562 HiBiT knock-in); assay type: cell-based, human; conditions: HiBiT knock-in K562 cells, 24 hours, top dose 10 μM
Outline: (§2)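 Steps: seed HiBiT knock-in K562 cells; add compound in 10-point 3-fold series from 10 μM final; incubate 24 h, 37 °C; add lytic HiBiT reagent, shake 5 min, wait 10 min; read luminescence. Normalize to parental K562 and DMSO controls, fit 4PL, take IC50.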

HTT = assay: HiBiT protein abundance assay, HTT (K562 HiBiT knock-in); assay type: cell-based, human; conditions: HiBiT knock-in K562 cells, 24 hours, top dose 10 μM
Outline: as §2

Target C = assay: HiBiT protein abundance assay, Target C (K562 HiBiT knock-in); assay type: cell-based, human; conditions: HiBiT knock-in K562 cells, 24 hours, top dose 10 μM
Outline: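 K562 HiBiT knock-in cells (10000/well) were treated 24 h at 37° C with a 10-point 3-fold dilution series (top 10 μM final, ≤0.25% DMSO). HiBiT luminescence was read after lytic LgBiT detection. Percent response used unmodified K562 and DMSO-treated knock-in controls, and IC50 came from a four-parameter fit at 50% of untreated.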

K562 cells = assay: Cell Titer Glo 2.0 cell viability (toxicity) assay, K562; conditions: 500 cells/well, 72 hours
[1] = Homo sapiens, HTT canonical junction mRNA, RT-qPCR, read-out: HTT CJ (decrease in CJ mRNA levels, IC50)
[2] = Homo sapiens, canonical junction qPCR panel, Table 4, read-out: HTT IC50 (decrease in CJ mRNA levels)
[3] = Homo sapiens, MYB canonical junction mRNA, RT-qPCR, read-out: MYB CJ (decrease in CJ mRNA levels, IC50)
[4] = Homo sapiens, canonical junction qPCR panel, Table 4, read-out: MYB IC50 (decrease in CJ mRNA levels)

SMILES	pIC50 (HTT mRNA; [1])	pIC50 (HTT mRNA; [2])	pIC50 (MYB mRNA; [3])	pIC50 (MYB mRNA; [4])	pIC50 (SMN2 mRNA; Homo sapiens)	pIC50 (MYB)	pIC50 (HTT)	pIC50 (Target C)	pIC50 (HTT mRNA; HTT canonical junction mRNA, RT-qPCR, read-out: HTT CJ (decrease in CJ mRNA levels, IC50))	pIC50 (HTT mRNA; canonical junction qPCR panel, Table 4, read-out: HTT IC50 (decrease in CJ mRNA levels))	pIC50 (MYB mRNA; MYB canonical junction mRNA, RT-qPCR, read-out: MYB CJ (decrease in CJ mRNA levels, IC50))	pIC50 (MYB mRNA; canonical junction qPCR panel, Table 4, read-out: MYB IC50 (decrease in CJ mRNA levels))	pIC50 (SMN2 mRNA)	AC50 (HTT mRNA; Homo sapiens, RT-qPCR) [nM]	AC50 (MYB mRNA; Homo sapiens, RT-qPCR) [nM]	Effect of Exemplary Compounds on Cell Viability, K562 (K562 cells)	AC50 (HTT mRNA; RT-qPCR) [nM]	AC50 (MYB mRNA; RT-qPCR) [nM]
Cc1nc2cc(O)c(-c3ccc4nc(N5CCC(NC(C)(C)C)C5)ccc4n3)cc2o1 (stereo not drawn) [Compound 175]	> 7.00	> 7.00	> 7.00	> 7.00	> 7.00	> 7.00	> 7.00	> 7.00						< 100	< 100	B (B represents 100-1000 nM)		
COc1cc2nc(C)sc2cc1-c1ccc2nc(N3CCC(NC(C)(C)C)C3)ccc2n1 (stereo not drawn) [Compound 176]	5.00 to 6.00	5.00 to 6.00	5.00 to 6.00	5.00 to 6.00	5.00 to 6.00	5.00 to 6.00	5.00 to 6.00	5.00 to 6.00						1000 to 10000	1000 to 10000	C (C represents 1000-9999 nM)		
COc1cc2nc(C)oc2cc1-c1ccc2nc(N3CCC(NC(C)(C)C)C3)ccc2n1 (stereo not drawn) [Compound 177]	5.00 to 6.00	5.00 to 6.00	5.00 to 6.00	5.00 to 6.00	5.00 to 6.00	5.00 to 6.00	5.00 to 6.00	5.00 to 6.00						1000 to 10000	1000 to 10000	C (C represents 1000-9999 nM)		
Cn1cc2cc(-c3ccc4nc(N5CCC6(CCN6)C5)ccc4n3)c(O)cc2n1 (stereo not drawn) [Compound 178]	6.00 to 7.00	6.00 to 7.00	6.00 to 7.00	6.00 to 7.00	> 7.00	6.00 to 7.00	6.00 to 7.00	6.00 to 7.00						100 to 1000	100 to 1000	B (B represents 100-1000 nM)		
CCN[C@H]1CCN(c2ccc3nc(-c4cc5cn(C)nc5cc4O)ccc3n2)C1 [Compound 179]	> 7.00	> 7.00	6.00 to 7.00	6.00 to 7.00	> 7.00	6.00 to 7.00	> 7.00	6.00 to 7.00						< 100	< 100	B (B represents 100-1000 nM)		
CCN[C@@H]1CCN(c2ccc3nc(-c4cc5cn(C)nc5cc4O)ccc3n2)C1 [Compound 180]	> 7.00	> 7.00	> 7.00	> 7.00	> 7.00	> 7.00	> 7.00	6.00 to 7.00						100 to 1000	< 100	A (A represents <100 nM)		
Cn1cc2cc(-c3ccc4nc(N5CC[C@H](NCC(F)(F)F)C5)ccc4n3)c(O)cc2n1 [Compound 182]	5.00 to 6.00	5.00 to 6.00	5.00 to 6.00	5.00 to 6.00	5.00 to 6.00	< 5.00	< 5.00	< 5.00						> 10000	> 10000	D (D represents greater than 10 μM in K562 cells)		
Cn1cc2cc(-c3ccc4nc(C5CCNCC5)ccc4n3)ccc2n1 [Compound 184]	6.00 to 7.00	6.00 to 7.00	6.00 to 7.00	6.00 to 7.00	> 7.00	6.00 to 7.00	6.00 to 7.00	6.00 to 7.00						100 to 1000	100 to 1000	B (B represents 100-1000 nM)		
Cn1cc2cc(-c3ccc4nc(C5CCNCC5)ccc4n3)cc(F)c2n1 [Compound 185]	5.00 to 6.00	5.00 to 6.00	5.00 to 6.00	5.00 to 6.00	6.00 to 7.00	5.00 to 6.00	5.00 to 6.00	< 5.00						1000 to 10000	1000 to 10000	C (C represents 1000-9999 nM)		

Continued, in another order:

pIC50 (HTT mRNA; [1])	pIC50 (HTT mRNA; [2])	pIC50 (MYB mRNA; [3])	pIC50 (MYB mRNA; [4])	pIC50 (SMN2 mRNA; Homo sapiens)	pIC50 (MYB)	pIC50 (HTT)	pIC50 (Target C)	pIC50 (HTT mRNA; HTT canonical junction mRNA, RT-qPCR, read-out: HTT CJ (decrease in CJ mRNA levels, IC50))	pIC50 (HTT mRNA; canonical junction qPCR panel, Table 4, read-out: HTT IC50 (decrease in CJ mRNA levels))	pIC50 (MYB mRNA; MYB canonical junction mRNA, RT-qPCR, read-out: MYB CJ (decrease in CJ mRNA levels, IC50))	pIC50 (MYB mRNA; canonical junction qPCR panel, Table 4, read-out: MYB IC50 (decrease in CJ mRNA levels))	pIC50 (SMN2 mRNA)	SMILES	AC50 (HTT mRNA; Homo sapiens, RT-qPCR) [nM]	AC50 (MYB mRNA; Homo sapiens, RT-qPCR) [nM]	Effect of Exemplary Compounds on Cell Viability, K562 (K562 cells)	AC50 (HTT mRNA; RT-qPCR) [nM]	AC50 (MYB mRNA; RT-qPCR) [nM]
> 7.00	> 7.00	6.00 to 7.00	6.00 to 7.00	> 7.00	6.00 to 7.00	> 7.00	> 7.00						Cc1cn2nc(-c3ccc4nc(N5CCC(NC(C)(C)C)C5)ccc4n3)cc2c(C)n1 (stereo not drawn) [Compound 187]	< 100	< 100	B (B represents 100-1000 nM)		
6.00 to 7.00	6.00 to 7.00	6.00 to 7.00	6.00 to 7.00	> 7.00	5.00 to 6.00	6.00 to 7.00	5.00 to 6.00						Cn1cc2cc(-c3ccc4nc(N5CC[C@@H](NC6COC6)C5)ccc4n3)c(O)cc2n1 [Compound 188]	100 to 1000	100 to 1000	C (C represents 1000-9999 nM)		
5.00 to 6.00	5.00 to 6.00	6.00 to 7.00	6.00 to 7.00	> 7.00	5.00 to 6.00	5.00 to 6.00	5.00 to 6.00						Cn1cc2cc(-c3ccc4nc(N5CC[C@H](NC6COC6)C5)ccc4n3)c(O)cc2n1 [Compound 189]	100 to 1000	100 to 1000	D (D represents greater than 10 μM in K562 cells)		
< 5.00	< 5.00	< 5.00	< 5.00	> 7.00	< 5.00	< 5.00	< 5.00						Cc1nc2cc(O)c(-c3ccc4nc(N5CCC(NC(C)(C)C)C5)ccc4n3)cc2s1 (stereo not drawn) [Compound 190]	> 10000	> 10000	C (C represents 1000-9999 nM)		
					> 7.00	> 7.00	> 7.00	< 5.00	< 5.00	< 5.00	< 5.00	< 5.00	Cc1c(O)c(-c2ccc3nc(N4CCC(NC(C)(C)C)C4)ccc3n2)cc2cn(C)nc12 (stereo not drawn) [Compound 191]			A (A represents <100 nM)	> 10000	> 10000
5.00 to 6.00	5.00 to 6.00	5.00 to 6.00	5.00 to 6.00	5.00 to 6.00	5.00 to 6.00	5.00 to 6.00	5.00 to 6.00						Cn1cc2cc(-c3ccc4nc(C5CCNCC5)ccc4n3)c(F)cc2n1 [Compound 193]	1000 to 10000	1000 to 10000	C (C represents 1000-9999 nM)		
6.00 to 7.00	6.00 to 7.00	6.00 to 7.00	6.00 to 7.00	> 7.00	> 7.00	6.00 to 7.00	6.00 to 7.00						Cn1cc2cc(-c3ccc4nc(N5CC[C@@H](NCC6CC6)C5)ccc4n3)c(O)cc2n1 [Compound 195]	100 to 1000	< 100	B (B represents 100-1000 nM)		
< 5.00	< 5.00	< 5.00	< 5.00	5.00 to 6.00	< 5.00	< 5.00	< 5.00						Cn1cc2cc(-c3ccc4nc(C5CCNCC5)ccc4n3)c(C(F)F)cc2n1 [Compound 196]	> 10000	> 10000	D (D represents greater than 10 μM in K562 cells)		
> 7.00	> 7.00	6.00 to 7.00	6.00 to 7.00	> 7.00	6.00 to 7.00	> 7.00	6.00 to 7.00						Cn1cc2cc(-c3ccc4nc(N5CC[C@H](NC6CC6)C5)ccc4n3)c(O)cc2n1 [Compound 197]	< 100	100 to 1000	B (B represents 100-1000 nM)		
